The test system of data set [1] is SKOV-3. Put plainly: Flow cytometry cell cycle distribution / DNA debris, SKOV-3. It counts as cell-based, human. As to conditions: 48 h exposure. The method, then: Three×10^5 cells were seeded in plastic tissue culture flasks. […] Control cultures received an appropriate volume of Kollidine-17P. […] The percentage of DNA debris in the sub-G0/G1 region was assessed using cytofluorometric techniques. Each bar represents the mean (±SE) of three determinations. **p≦0.01, ***p≦0.001, ****p≦0.0001
For flow cytometry studies, 1×10^6 PA-1, SKOV-3, or NIH-3T3 cells were incubated for 24 h in appropriate media containing serum. […] Control cultures for each cell line were incubated in media containing 40 μl of 5% Kollidon 17PF alone. Forty-eight hours later, all cells were harvested by trypsinization and prepared for cytofluorometric analysis by standard methods. For example, harvested cells were resuspended in ice cold phosphate-buffered saline at a final cell density of 2×10^6 cells/ml. The cells then were stained for 30 min at room temperature in the dark with a solution of 0.05 mg/ml propidium iodide, 0.6% Igepal, and 1% sodium citrate. Flow cytometry was performed by FACScan (Becton Dickinson, Plymouth, England) using the ModFit LT program (Becton Dickinson). […]
Three×10^5 cells were seeded in plastic tissue culture flasks. […] After an additional 48 h, cells were harvested, stained with propidium iodide, and cell cycle distribution assessed using cytofluorometric techniques. […]
(In general: A flow cytometer gives signals particle by particle.)

Data set [2] concerns PARP. Briefly: Western-blot analysis of PARP cleavage, PA-1 cells. It counts as cell-based, human. To be noted: 24 h exposure to 50 or 100 μM. The method, then: Two×10^6 cells were seeded in 150 cm^2 tissue culture flasks. […] After an additional twenty-four hours, cells were harvested, cell number determined, and aliquots derived from equal cell numbers generated from each exposure condition. Total proteins from these whole cell lysates were separated by SDS-PAGE and transferred to nitrocellulose filters. Filters were then immunoblotted to detect intact PARP protein and cleavage fragments by using the clone C-2-10 mouse monoclonal anti-PARP antibody (Zymed Laboratories, San Francisco, Calif.). The resulting protein-antibody complexes were visualized by chemiluminescence techniques.
Western-blot analysis was used to assess of PARP cleavage. Two×10^6 cells were seeded into separate 75 cm^2 tissue culture flasks containing 20 ml of tissue culture media plus serum. […] Twenty-four hours after the addition of Taurolidine, cells were harvested, cell number determined, and aliquots containing an equal cell number were generated from each exposure condition. Total proteins from whole cell lysates generated from these aliquots were separated by SDS-PAGE and electrotransferred to nitrocellulose filters. Filters were then processed to detect intact PARP protein and cleavage fragments by using the clone C-2-10 mouse monoclonal anti-PARP antibody (Zymed Laboratories, San Francisco, Calif.). […]

Data set [3] has as its system SKOV-3 human ovarian tumor xenografts. Briefly: i.p. SKOV-3 human ovarian tumor xenografts in female nude mice. It counts as in vivo. From the text: Fourteen days following the final Taurolidine injection, mice in all groups were sacrificed and the peritoneal cavity examined for the presence of tumors. Each experimental was repeated three times and the pooled number of animals in each group ranged from 15-21.
Fourteen days following the final Taurolidine injection, mice in all groups were sacrificed, i.p. ovarian tumor xenografts removed and tumor weighed. Each experiment was repeated three times and the pooled number of animals in each group ranged from 15-21. Each bar represents the mean (±SE) tumor weight of 15-21 animals. ***p≦0.001, ****p≦0.0001.
To evaluate therapeutic effectiveness, mice received a single intraperitoneal injection of 5×10^6 SKOV-3 cells in a volume of 0.5 ml. Immediately thereafter, mice were randomly divided into treatment groups of 7 animals. […] Control animals received 1 ml injections of 5% Kollidon 17PF alone. Animals were examined daily and body weight recorded twice weekly. […] The mean tumor weight for each treatment group was calculated and statistical analysis of differences in the mean tumor weight between treatment groups employed the Student's t-test. p-values of ≦0.05 were considered significant.
For orientation: In xenograft studies the graft and the host belong to different species.

Data set [4] deals with human and murine tumor cell lines. Briefly: Growth inhibition, panel of selected human and murine tumor cell lines. To be noted: 72 h; 3 d exposure; panel of 12 selected human and murine tumor cell lines; read-out: IC50s, growth inhibition across all cell lines evaluated. It counts as cell-based. The method, then: One ml of this cell suspension was added to each well of a 12 well cell culture plate that contained 3 ml of appropriate media plus serum. […] Control wells received 40 μl of 5% Kollidon 17PF alone. Seventy-two hours later, all cells were harvested by trypsinization and cell number determined electronically using a Coulter Model Z1 particle counter (Coulter Corp., Miami, Fla.) to assess cell growth inhibition. Each experiment was performed in duplicate and repeated a minimum of three times.
Cells were seeded at a density of 1-5×10^4 cells in each well of a 6 well tissue culture flask. […] After three days, cells were harvested by trypsinization and cell number determined electronically. Cell growth inhibition was determined by comparison to non-Taurolidine exposed control cultures. The IC50 was calculated as the concentration required to inhibit cell number by 50%.

The test system of data set [5] is human ovarian tumor cells. Briefly: Growth of established human ovarian tumor cell colonies. In kind it is cell-based. To be noted: 24-hour exposure to 50 μM; discrete colonies. The method, then:
Parallel studies were carried out to assess whether disruption of cell adhesion played a role in the cytotoxic activity.

The subject of data set [6] is 3T3 cells. Put plainly: DNA fragmentation, normal 3T3 cells. It counts as cell-based. The text has this: This DNA fragmentation was not observed in normal 3T3 cells.
The subject of data set [7] is Bcl2-over expressing HL-60 cells. Briefly: Apoptosis induction in Bcl2-over expressing HL-60 cells. It counts as cell-based, human. The text has this:
Human leukemia HL-60 cells, which were genetically-engineered to resist apoptotic induction, were induced to apoptosis independently (downstream) of the bcl-2/bax (anti-death gene) point in the signal transduction cascade.

Data set [8] has as its system glioblastoma multiforma. Briefly: Clinical use in patients with advanced recurrent glioblastoma multiforma. In kind it is in vivo, human. The method, then: Four patients, which were diagnosed with advanced recurrent glioblastoma multiforma, were treated with taurolidine. The prognosis for this group of patients was determined to be approximately 8 weeks of survival.

The nature of data set [9]: Clinical tolerability in ovarian tumor and glioblastoma patients. It counts as in vivo, human. To be noted: i.p. lavage after surgery for recurrent ovarian tumors; systemic in glioblastoma. Here is the method: Taurolidine was administered by i.p. lavage immediately following surgery for removal of recurrent ovarian tumors. For patients with glioblastoma, Taurolidine was administered systemically.
Taurolidine was administered by i.p. lavage immediately following surgery for removal of recurrent ovarian tumors. For patients with glioblastoma, taurolidine was administered systemically.

Data set [10] deals with MDR-transfected glioblastoma cells. Briefly: Cytotoxicity in MDR-transfected glioblastoma cells. As to conditions: dose of 50 μM.
From the text: The neoplastic cell lines used in the survey were standard tumor cell lines, e.g., PA1 human ovarian cell line, SKOV3 human ovarian cell line, HT29 human colon tumor cell line, DU145 human prostate tumor cell line, U251 human glioblastoma cell line, U251-MDR human glioblastoma cell line transfected with DNA encoding MDR, T98G human glioblastoma cell line, SP-1 human leukemia cell line, and Daudi human leukemia cell line.
Glioblastoma cells were transfected with a gene encoding multiple drug resistance (MDR).

Entries after “also recorded” stand apart in the source; their conditions may differ.

On to `O=S1(=O)CCN(CN2CCS(=O)(=O)NC2)CN1` [Taurolidine, Bis-(1,1-dioxoperhydro-1,2,4-thiadiazinyl-4)methane], for which the “effect on cell cycle distribution” value in data set [1] was “reduced the percentage of cells in the G0/G1-phase and increased the percentage of cells in both S and G2/M; also recorded: concentration-dependent decrease in the percentage of cells in G0/G1 but increased the percentage of cells in both the S-phase and G2/M”. The “DNA debris in the sub-G0/G1 region” value in [1] (25-100 μM) is listed as “significantly increased DNA debris; also recorded: resulted in the appearance of DNA debris”. Besides, the PARP cleavage entry in data set [2] is recorded as “induced PARP cleavage; also recorded: resulted in PARP cleavage”. Besides, the ascites formation entry in [3] (20 mg/mouse/injection i.p. x 3 d starting on the day of tumor cell injection) is on record as “no evidence of ascites formation”. The “tumor formation and growth” value in data set [3] (3 d 20 mg/mouse i.p. regimen, nude mice bearing i.p. human ovarian tumor xenografts) is “significant inhibition of both tumor formation and growth; also recorded: significantly inhibited tumor development and growth; also recorded: highly effective and inhibited tumor formation”. Further, the tumor growth result in [3] (single cycle initiated 5 d after tumor cell injection (established i.p. tumors)) is on record as “significantly inhibiting tumor growth”. In addition, the “mean tumor size in treated mice vs controls” value in data set [3] (therapy delayed for up to 3 d after tumor cell injection) is given as “significantly smaller than in controls”. The IC50 in data set [4] is 9.6 to 34.2 µM. The “cytotoxic effect against the growth of established tumor cells” value in data set [5] is reported as “significant cytotoxic effect”. Also, the DNA fragmentation result in [6] (3T3, 24-hour exposure) is reported as “not observed”. Besides, in [6] (3T3 cells, identical regimen (50 μM)), the “DNA fragmentation by agarose-gel electrophoresis” value is listed as “not apparent”. Besides, the induction of apoptosis result in data set [7] is given as “capable of inducing apoptosis, but with a delayed onset”. Further, the “patients in whom the tumor mass decreased or stayed the same” value in [8] (20 g infused intravenously over 6 hours twice a week, at least one 5 week regimen, four patients) is reported as 3 out of the 4. In [8] (at 14 weeks after the initiation of therapy, prognosis approximately 8 weeks), the survival result is on record as “each of the patients remains alive”. Also, the tolerability in patients result in data set [9] is reported as “well tolerated”. Also, the cytotoxicity entry in data set [10] is “Significant cytotoxicity”.
